Results reported in patent publication US11980669B2, “Capped and uncapped antibody cysteines, and their use in antibody-drug conjugation” (PFIZER INC., priority 2015, dated 2024).

Test system: stable CHO cells
Test: Cell viability and cell counts of stable CHO cells cultured with capping reagent in the medium
Format: cell-based
Details: 0.5 mM DTNB in CD-CHO medium, 72 hrs
Protocol: Ellman's reagent, 5,5′-dithiobis-(2-nitrobeoic acid) (DTNB) was examined as a capping agent to add thionitrobenzoate (TNB). (DTNB is commonly used for assaying free thiol content in proteins. This reagent cannot disrupt disulfide bond but can react with free Cys. It has been used to treat partially-reduced antibody materials to generate four free Cys for drug conjugation.) A CHO cell line stably expressing the cysteine mutant antibody was grown to 4×10e6/ml in CD-CHO medium, then switched to fresh CD-CHO medium, fresh CD-CHO medium with 0.5 mM DTNB, or the triple-low medium as a control. Cells were cultured in these conditions for 72 hrs, cell viability was measured and conditioned medium was harvested. […] Protein expression in the DTNB-containing medium was also 5-fold lower than those in CD-CHO. Antibody purification from ProA column and protein migration in SDS-PAGE from all three culture conditions materials were nearly identical, as shown in FIG. 5A. All three samples in SEC analysis show monomer species, with very little aggregation.
19.8 mM MTFB, dissolved in DMSO, was added to 50 ml cell culture at a final concentration of 0.25 mM for 24 hr. Cell viability was measured and conditioned medium was harvested. […] Antibody HAB08L443C at such condition was subsequently purified by a 1 ml-ProA column (FIG. 12B). […]

SMILES: O=C(O)c1cc(SSc2ccc([N+](=O)[O-])c(C(=O)O)c2)ccc1[N+](=O)[O-] [DTNB, 5,5′-dithiobis-(2-nitrobeoic acid)]
- Cell viability: 40%
